Test results as given in PMC7785057 (ACS catalysis, 2020).

Biological target: NmSiaDW (Neisseria meningitidis, UniProt O33390)
Experiment: sialyltransferase kinetics, varied acceptor
Assay type: biochemical
Conditions: α2–6-sialyltransferase activity, fixed concentration of CMP-Neu5Ac

**Q.** Which Km does the source give for `CC(=O)N[C@H]1[C@H]([C@H](O)[C@H](O)CO)O[C@@](OC[C@H]2O[C@H](O[C@H]3C[C@](OCCCNC(=O)OCc4ccccc4)(C(=O)O)O[C@@H]([C@H](O)[C@H](O)CO)[C@@H]3NC(C)=O)[C@H](O)[C@@H](O)[C@H]2O)(C(=O)O)C[C@@H]1O[C@H]1O[C@H](CO)[C@H](O)[C@H](O)[C@H]1O` [G4] here?
**A.** The Km was 240 ± 40 µM.
